Laboratory results published in patent US6265390A, “Methods for expressing nucleic acid sequences using nucleic acid constructs comprising hypoxia response elements” (Oxford Biomedica (UK) Limited, priority 1994, dated 2001).

Legend:
[1] = tested on: M3 cells (HT1080 transfected with cytosine deaminase under PGK-1 promoter with 3 copies of P24); assay: Hypoxia-induced pro-drug sensitisation, M3 cells; format: cell-based; details: 16 hours hypoxic exposure, 24 hours drug, 96 hour growth delay
Procedure: The PGK-1 hypoxia response element was evaluated within the context of the PGK-1 gene promoter (M3), the 9-27 gene promoter (9-3C) and the thymidine kinase gene promoter (sTK5). […] The promoters and PGK-1 hypoxia response elements were placed upstream of genes encoding the endothelial CD2 surface protein and the negative selectable marker cytosine deaminase. The 9-27 and thymidine kinase promoters were each used with 3 copies of the P18 PGK-1 element and the PGK-1 gene promoter was used with 3 copies of the P24 PGK-1 element. Transfected cells (9-3C and M3) as described in Example 9 were tested for sensitivity to 5-FC. Cells were subjected to hypoxic exposure (16 hours), followed by exposure to 5-FC or 5-FU (24 hours), followed by a 96 hour growth delay.

[2] = tested on: 9-3C cells (HT1080 transfected with cytosine deaminase under 9-27 promoter with 3 copies of P18); assay: Hypoxia-induced pro-drug sensitisation, 9-3C cells; format: cell-based; details: 16 hours hypoxic exposure, 24 hours drug, 96 hour growth delay
Procedure: The PGK-1 hypoxia response element was evaluated within the context of the PGK-1 gene promoter (M3), the 9-27 gene promoter (9-3C) and the thymidine kinase gene promoter (sTK5).
The constructs were similar to those described in Example 7. The promoters and PGK-1 hypoxia response elements were placed upstream of genes encoding the endothelial CD2 surface protein and the negative selectable marker cytosine deaminase. The 9-27 and thymidine kinase promoters were each used with 3 copies of the P18 PGK-1 element and the PGK-1 gene promoter was used with 3 copies of the P24 PGK-1 element.
(§1) Transfected cells (9-3C and M3) as described in Example 9 were tested for sensitivity to 5-FC. Cells were subjected to hypoxic exposure (16 hours), followed by exposure to 5-FC or 5-FU (24 hours), followed by a 96 hour growth delay.

[3] = tested on: MCF-7(-4) cells transfected with thymidine phosphorylase gene; assay: Drug sensitivity of thymidine phosphorylase transfectant -4; format: cell-based, human; details: survival curve, FIG. 3
Source text: (§2) Human breast cancer cells of the cell line MCF-7 were transfected with a gene for thymidine phosphorylase. […] The gene is suitable for linking up with hypoxically-inducible promoters/enhancers.
(§3) Results of drug sensitivity experiments are shown in FIGS. 3-7. -7, -4, -12, +4 and +16 are all derivatives of MCF-7 which have been transfected with the thymidine phosphorylase gene.
(§4) Note that there is a log scale and therefore the IC50 (the concentration of drug required to inhibit growth by 50%) is more than 100 times lower for the transfectants -12 and -4. Therefore, the expression of one gene at a higher level can make these cells 100 times more sensitive to chemotherapy. Clearly there is variation depending on the level of expression and therefore we want to be able to switch on as high as possible. […] This means that it is the activation step that is important rather than downstream events.

[4] = tested on: MCF-7 wild-type and thymidine phosphorylase transfectant clones; assay: Drug sensitivity of clones -4, -7, -12, -16, +4 compared with wild type; format: cell-based, human; details: FIG. 6
Source text: as §2, §3, §4

[5] = tested on: control (Wt) non-transfected HT1080 cells and transfectant cells (9-3C, M3); assay: Drug sensitivity after hypoxic or normoxic treatment, control and transfectants; format: cell-based; details: 16 hours exposure, 24 hours drug, 96 hour growth delay
Procedure: as §1

[6] = tested on: endogenous human PGK-1 gene expression in HepG2 cells; assay: RNA analysis of endogenous PGK-1 gene expression; format: cell-based; details: 100 μM, 16 hours, hypoxia 1% O2
Procedure: (§5) The cell lines used were HepG2 (human hepatoma), HeLa (human cervical carcinoma) and L cells (mouse fibroblast) grown in minimal essential medium, with Earle's salts, supplemented with fetal bovine serum (10%), glutamine (2 mM), penicillin (50 units/ml) and streptomycin sulfate (50 μg/ml). For assay of endogenous gene expression, and for preparation of nuclear extracts, cells were grown to approximately 70% confluence. […]
(§6) RNA was extracted, analysed by RNase protection, and quantitated as previously described (Pugh et al 1991). […]
(§7) For assay of endogenous PGK-1 gene expression 50 μg of RNA extracted from HepG2 cells was hybridised with a riboprobe which consisted of 121 bp from the 5' end of the exon 3 of the human PGK-1 gene, together with 68 bp of adjacent intron (obtained by PCR of genomic DNA and cloning by standard methods). […] In these experiments a small quantity (0.5 μg) of RNA extracted from K562 cells (a human […] cell line which expresses a globin mRNA abundantly) was added to each sample before hybridisation, and the samples were probed concurrently with the α97 probe in addition to the PGK-1 or LDH-A probe. […]

[7] = tested on: endogenous mouse LDH-A gene expression in L cells; assay: RNA analysis of endogenous LDH-A gene expression; format: cell-based; details: 100 μM, 16 hours, hypoxia 1% O2
Procedure: as §5, §6, §7

## Nc1nc(=O)[nH]cc1F [5-FC, 5-fluorocytosine]
[1]
  sensitivity post-hypoxia: significantly more sensitive
[2]
  sensitivity post-hypoxia: significantly more sensitive

## O=c1[nH]cc(F)c(=O)[nH]1 [5FU, 5-fluorouracil]
[3]
  difference in sensitivity between WT and transfectant: relatively little difference
[4]
  difference in sensitivity of the cells: very little difference
[5]
  difference in sensitivity following hypoxic or normoxic treatment: no significant difference

## C[C@@H]1C[C@@H]([C@H](O)CC2CC(=O)NC(=O)C2)C(=O)[C@@H](C)C1 [cycloheximide]
[6]
  effect on hypoxic induction of gene expression: abrogated the response to hypoxia
[7]
  effect on hypoxic induction of gene expression: abrogated the response to hypoxia
